From patent publication US11779015B2, “Pesticide compositions” (FUNDACIÓ CENTRE DE REGULACIÓ GENÒMICA, priority 2017, dated 2023) come the findings set out here.

Molecules are shown by their SMILES.

The assay has as its system D. suzukii. Nature of the assay: Infestation of pre-odour-treated blueberries, emergence of adult flies. Type of assay: in vivo, Drosophila suzukii. The conditions noted are these: 48 hours with adult flies, counted after 14 days. On the procedure:
Adult mixed female and male flies 20 (in the experiments below, D. suzukii flies) are placed in a cylindrical cage 60a with mesh roofing 80 for ventilation. Fruits 40 (in the experiments below 8 blueberries were used) are placed into a petri dish bottom 60b at the bottom of the cage 60a.
The blueberries were treated with (E)-2-hexenal and then exposed to flies. The impact of 1% vol, 5% vol and 10% vol aqueous emulsions of (E)-2-hexenal (obtained by dissolving the VOC in deionized water (DI) containing 1% (v/v) Tween 20 hydrophilic emulsifier) on egg-laying and the survival and development of larvae in pre-treated blueberries were compared to water-treated controls. In particular, the number of flies emerging after 14 days at ambient temperature was counted, following 48 hours of incubation of the treated blueberries with adult flies. The results of this analysis are shown on FIG. 6B. […] Significance was assessed by one-way ANOVA followed by Bonferroni correction at p≤0.05 and post-hoc two-sample t-test.
Eight ripe blueberries were dipped into 10 mL of a 1%, 5% or 10% aqueous emulsion of (E)-2-hexenal or deionised water as a control and left to air dry. They were then placed in a Petri dish at the bottom of a cylindrical plastic fly cage (∅=5.5 cm, h=7.5 cm), together with 20 mixed (10 females, 10 males) adult D. suzukii flies. The flies were exposed to the odour-treated blueberries during 48 hours at ambient room temperature conditions, after which they were removed and discarded. The blueberries were then transferred into an empty fly vial with cotton lids, and after 14 days at ambient room temperature conditions, the emergence of adult D. suzukii was examined by counting the number of flies. The assay was repeated 5 times.

Consider `CCC/C=C/C=O` [(E)-2-hexenal], for which the “fly emergence from pre-treated blueberries versus untreated” value runs as follows: (1% aqueous emulsion) “not significantly different from untreated berries”; (5% aqueous emulsion) “significant reduction of fly emergence”; (10% aqueous emulsion) “significant reduction of fly emergence”.
